# Measurements reported in patent publication US9850283B2, “Macrocyclic inhibitors of the PD-1/PD-L1 and CD80(B7-1)/PD-L1 protein/protein interactions” (BRISTOL-MYERS SQUIBB COMPANY, priority 2013, dated 2017).
# Read-outs that look alike come from different tables or passages of the source. Starred links: 1 amine or outer side, 2 acyl side, 3 side chain; linkers in the order of their positions; H or OH if unused. Positions of bridges follow the written chain, without caps; N, C: chain ends. Non-standard residues stand in square brackets, D forms with d. Residues, ends and D or L forms follow the SMILES beside them. ξ: configuration not given here. X8 = COc1cccc(-c2[nH]c3ccccc3c2C[C@H](N[*:1])C(=O)[*:2])c1; Phe(3-Cl) = N[C@@H](Cc1cccc(Cl)c1)C(=O)O; Pro(4,4-F2) = O=C(O)[C@@H]1CC(F)(F)CN1; Bta = N[C@@H](Cc1csc2ccccc12)C(=O)O; Hyp = O=C(O)[C@@H]1C[C@@H](O)CN1; NMeF = CN[C@@H](Cc1ccccc1)C(=O)O; 4Pal = N[C@@H](Cc1ccncc1)C(=O)O; Chg = N[C@H](C(=O)O)C1CCCCC1; NMeNle = CCCC[C@H](NC)C(=O)O; ξR = N=C(N)NCCCC(N)C(=O)O; NMeA = CN[C@@H](C)C(=O)O; Nle = CCCC[C@H](N)C(=O)O; Orn = NCCC[C@H](N)C(=O)O; dThz = O=C(O)[C@H]1CSCN1; Dab = NCC[C@H](N)C(=O)O; Dap = NC[C@H](N)C(=O)O; ξC = NC(CS)C(=O)O; Sar = CNCC(=O)O
# Assays:
# [1] = molecular target: T1, LK35.2-hPD-L1 cells / PE-labeled PD-1-Ig (Homo sapiens, UniProt Q9NZQ7); assay: LK35.2-hPD-L1 cell binding high-content screening assay; assay type: cell-based
# T1 construct: expressed in transfected cells; host or cells: LK35.2 mouse B cell line
# Summary of the method: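 Mouse LK35.2 B cells stably over-expressing human PD-L1, cultured overnight, treated with compound plus PE-labeled human PD-1-Ig (1 nM final) in RPMI/10% FCS for 1 h at 37 °C. After washing, bound fluorescence quantified by high-content imaging.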
# [2] = molecular target: T2, Human PD-L1/PD-1 (Homo sapiens, UniProt Q9NZQ7); assay: HTRF PD-1-Ig/PD-L1-His binding assay (human PD-L1)
# T2 construct: made in house; host or cells: HEK293T
# Summary of the method: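 Steps: truncated PD-1-Ig and PD-L1-His fusions are incubated in dPBS containing 0.1% (w/v) BSA and 0.05% (v/v) Tween-20. Detection antibodies are then added (Eu cryptate anti-Ig at 1 nM final, APC anti-His at 20 nM final), and time-resolved FRET is measured.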
# [3] = cell binding assay, cell line not given, cluster symbol, read-out: CBA IC50 cluster
# [4] = cluster symbol, read-out: HTRF IC50 cluster
# [5] = cluster symbol, cell line of CBA not given (LK35.2-hPD-L1 or 293T-hPD-L1), read-out: CBA IC50 cluster
# T2 sequence (Q9NZQ7 with tags, fused parts or gaps): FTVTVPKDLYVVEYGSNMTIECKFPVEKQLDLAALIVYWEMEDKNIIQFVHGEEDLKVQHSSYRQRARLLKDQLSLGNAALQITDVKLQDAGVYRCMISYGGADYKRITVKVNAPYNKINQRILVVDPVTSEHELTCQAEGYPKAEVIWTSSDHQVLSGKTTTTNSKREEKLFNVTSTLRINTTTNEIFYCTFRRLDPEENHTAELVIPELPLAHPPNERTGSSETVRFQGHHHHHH
# T1 sequence (Q9NZQ7 19-290): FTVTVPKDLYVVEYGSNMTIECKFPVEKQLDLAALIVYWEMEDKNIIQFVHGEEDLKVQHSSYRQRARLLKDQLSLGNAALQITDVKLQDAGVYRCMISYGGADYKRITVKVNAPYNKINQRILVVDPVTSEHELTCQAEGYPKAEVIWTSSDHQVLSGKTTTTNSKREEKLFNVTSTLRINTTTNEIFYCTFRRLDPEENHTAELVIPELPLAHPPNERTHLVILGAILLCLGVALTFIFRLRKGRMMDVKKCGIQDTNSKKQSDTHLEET
Structure (SMILES),"IC50 [1, 3]","IC50 [2, 4]","IC50 [1, 5]",further results
CCCC[C@H]1C(=O)N(C)[C@@H](CCCC)C(=O)N[C@@H](CCCNC(=N)N)C(=O)NC(C(=O)NCC(N)=O)CSCC(=O)N[C@@H](Cc2ccc(O)cc2)C(=O)N(C)[C@@H](C)C(=O)N[C@@H](CC(N)=O)C(=O)N2CCC[C@H]2C(=O)N[C@@H](Cc2cnc[nH]2)C(=O)N[C@@H](CC(C)C)C(=O)N2[C@@H](C)CC[C@H]2C(=O)N[C@@H](Cc2c[nH]c3ccccc23)C(=O)N[C@@H](CO)C(=O)N[C@@H](Cc2c[nH]c3ccccc23)C(=O)N1C (stereo partly shown) [Example 9014],0.158 to 4.71 nM,0.385 to 6.74 nM,,
CCCC[C@H]1C(=O)N(C)CC(=O)N[C@@H](CC(=O)O)C(=O)N[C@@H](C(C)C)C(=O)N(C)[C@@H](Cc2ccccc2)C(=O)N[C@@H](Cc2ccc(O)cc2)C(=O)N2CCC[C@@H]2C(=O)N[C@@H](Cc2c[nH]c3ccccc23)C(=O)N[C@@H](Cc2ccc(O)cc2)C(=O)N[C@@H](CC(C)C)C(=O)N[C@H](C(N)=O)CSCC(=O)N[C@@H](Cc2cccc(Cl)c2)C(=O)N(C)[C@@H](Cc2ccccc2)C(=O)N1C [Example 3166] ({CH2CO}-[Phe(3-Cl)][NMeF][NMeNle][Sar]DV[NMeF]Y[dP]WYLC-NH2; thioether N-13),,6.76 to 30.3 nM,0.158 to 4.71 nM,
CCCC[C@H]1C(=O)N(C)[C@@H](CCCC)C(=O)N[C@@H](CC(C)C)C(=O)N[C@H](C(=O)NCC(N)=O)CSCC(=O)N[C@@H](Cc2ccc(O)cc2)C(=O)N(C)[C@@H](C)C(=O)N[C@@H](CCN)C(=O)N2CCC[C@H]2C(=O)N[C@@H](Cc2c[nH]cn2)C(=O)N[C@@H](CCC(=O)O)C(=O)N2C[C@H](O)C[C@H]2C(=O)N[C@@H](Cc2c[nH]c3ccccc23)C(=O)N[C@@H](C(C)C)C(=O)N[C@@H](Cc2c[nH]c3ccccc23)C(=O)N1C [Example 5107] ({CH2CO}-Y[NMeA][Dab]PHE[Hyp]WVW[NMeNle][NMeNle]LCG-NH2; thioether N-14),4.78 to 72.9 nM,6.76 to 30.3 nM,,
CCCC[C@@H]1NC(=O)[C@H](Cc2cnc[nH]2)NC(=O)[C@@H]2CCCN2C(=O)[C@H](CC(N)=O)NC(=O)[C@H](C)N(C)C(=O)[C@H](Cc2ccc(O)cc2)NC(=O)CSCC(C(=O)NCC(N)=O)NC(=O)[C@H](CCCNC(=N)N)NC(=O)[C@H](CCCC)N(C)C(=O)[C@H](CCCC)N(C)C(=O)[C@H](Cc2csc3ccccc23)NC(=O)[C@H](CO)NC(=O)[C@H](Cc2c[nH]c3ccccc23)NC(=O)[C@H]2CCCN2C1=O (stereo partly shown) [Example 9002] ({CH2CO}-Y[NMeA]NPH[Nle][dP]WS[Bta][NMeNle][NMeNle]R[ξC]G-NH2; thioether N-14),4.78 to 72.9 nM,6.76 to 30.3 nM,,
"CC(C)C[C@@H]1NC(=O)[C@H](Cc2ccc(O)cc2)NC(=O)[C@H](Cc2c[nH]c3ccccc23)NC(=O)CN(C)C(=O)[C@H](Cc2ccc(O)cc2)NC(=O)[C@H](Cc2ccccc2)N(C)C(=O)[C@H](C(C)C)NC(=O)[C@H](CC(=O)O)NC(=O)CN(C)C(=O)[C@H](Cc2ccc(O)cc2)N(C)C(=O)[C@H](Cc2ccccc2)N(C)C(=O)[C@H](Cc2ccccc2)NC(=O)CSC[C@@H](C(=O)NCC(N)=O)NC1=O [Example 3060-B] (HELM PEPTIDE1{[O=C(C[*:3])[*:2]].F.[meF].[meY].[Sar].D.V.[meF].Y.[Sar].W.Y.L.C.G.[am]}$PEPTIDE1,PEPTIDE1,1:R3-14:R3$$$V2.0)",,> 30.5 nM,> 74.3 nM,
CCCC[C@H]1C(=O)N(C)CC(=O)N[C@@H](CC(=O)O)C(=O)N[C@@H](C(C)C)C(=O)N(C)[C@@H](Cc2ccccc2)C(=O)N[C@@H](Cc2ccc(O)cc2)C(=O)N2CSC[C@@H]2C(=O)N[C@@H](Cc2c[nH]c3ccccc23)C(=O)N[C@@H](Cc2ccc(O)cc2)C(=O)N[C@@H](CC(C)C)C(=O)N[C@H](C(=O)NCC(N)=O)CSCC(=O)N[C@@H](Cc2ccccc2)C(=O)N(C)[C@@H](Cc2ccccc2)C(=O)N1C [Example 3601] ({CH2CO}-F[NMeF][NMeNle][Sar]DV[NMeF]Y[dThz]WYLCG-NH2; thioether N-13),,,,"IC50 ([1]; cell binding assay, cell line not given, value given instead of cluster, read-out: CBA IC50 value): 1.79 nM; IC50 ([2]; value given instead of cluster, read-out: HTRF IC50 value): 6.91 nM"
CCCC[C@H]1C(=O)N(C)CC(=O)N[C@@H](CC(=O)O)C(=O)N[C@@H](C2CCCCC2)C(=O)N(C)[C@@H](Cc2ccccc2)C(=O)N[C@@H](Cc2ccc(O)cc2)C(=O)N(C)CC(=O)N[C@@H](Cc2c[nH]c3ccccc23)C(=O)N[C@@H](Cc2ccc(O)cc2)C(=O)N[C@@H](CC(C)C)C(=O)N[C@H](C(=O)NCC(N)=O)CSCC(=O)N[C@@H](Cc2ccccc2)C(=O)N(C)[C@@H](Cc2ccccc2)C(=O)N1C [Example 3158] ({CH2CO}-F[NMeF][NMeNle][Sar]D[Chg][NMeF]Y[Sar]WYLCG-NH2; thioether N-13),,> 30.5 nM,4.78 to 72.9 nM,
CCCC[C@H]1C(=O)N(C)[C@@H](CCCC)C(=O)N[C@@H](CCCN)C(=O)N[C@H](C(=O)NCC(N)=O)CSCC(=O)N[C@@H](Cc2ccc(O)cc2)C(=O)N2C[C@H](N)C[C@H]2C(=O)N[C@@H](CC(N)=O)C(=O)N2CCC[C@H]2C(=O)N[C@@H](Cc2cnc[nH]2)C(=O)N[C@@H](CC(C)C)C(=O)N2C[C@H](O)C[C@H]2C(=O)N[C@@H](Cc2c[nH]c3ccccc23)C(=O)N[C@@H](CO)C(=O)N[C@@H](Cc2c[nH]c3ccccc23)C(=O)N1C [Example 1192],,,,"IC50 ([1]; cell line of CBA not given (LK35.2-hPD-L1 or 293T-hPD-L1), read-out: CBA IC50 value): 21.5 nM; IC50 ([2]; read-out: HTRF IC50 value): 6.74 nM"
"CCCC[C@H]1C(=O)N(C)[C@@H](CCCC)C(=O)N[C@@H](CCCNC(=N)N)C(=O)N[C@H](C(=O)NCC(N)=O)CSCC(=O)N[C@@H](Cc2ccccc2)C(=O)N(C)[C@@H](C)C(=O)N[C@@H](CC(N)=O)C(=O)N2CC(F)(F)C[C@H]2C(=O)N[C@@H](Cc2cnc[nH]2)C(=O)N[C@@H](CC(C)C)C(=O)N(C)CC(=O)N[C@@H](Cc2c[nH]c3ccccc23)C(=O)N[C@@H](CO)C(=O)N[C@@H](Cc2c[nH]c3ccccc23)C(=O)N1C [Example 1112] ({CH2CO}-F[NMeA]N[Pro(4,4-F2)]HL[Sar]WSW[NMeNle][NMeNle]RCG-NH2; thioether N-14)",,> 30.5 nM,> 74.3 nM,
"CC(C)C[C@@H]1NC(=O)[C@H](Cc2ccc(O)cc2)NC(=O)[C@H](Cc2c[nH]c3ccccc23)NC(=O)CN(C)C(=O)[C@H](Cc2ccc(O)cc2)NC(=O)[C@H](Cc2ccccc2)N(C)C(=O)[C@H](C(C)C)NC(=O)[C@H](CC(=O)O)NC(=O)CN(C)C(=O)[C@H](CC(C)C)N(C)C(=O)[C@H](Cc2ccccc2)N(C)C(=O)[C@H](Cc2ccccc2)NC(=O)CSC[C@@H](C(=O)NCC(N)=O)NC1=O [Example 3136] (HELM PEPTIDE1{[O=C(C[*:3])[*:2]].F.[meF].[meL].[Sar].D.V.[meF].Y.[Sar].W.Y.L.C.G.[am]}$PEPTIDE1,PEPTIDE1,1:R3-14:R3$$$V2.0)",,6.76 to 30.3 nM,4.78 to 72.9 nM,
CCCC[C@H]1C(=O)N(C)CC(=O)N[C@@H](CC(=O)O)C(=O)N[C@@H](C(C)C)C(=O)N(C)[C@@H](Cc2ccccc2)C(=O)N[C@@H](Cc2ccc(O)cc2)C(=O)N(C)CC(=O)N[C@@H](Cc2csc3ccccc23)C(=O)N[C@@H](Cc2ccc(O)cc2)C(=O)N[C@@H](CC(C)C)C(=O)N[C@H](C(=O)NCC(N)=O)CSCC(=O)N[C@@H](Cc2ccccc2)C(=O)N(C)[C@@H](Cc2ccccc2)C(=O)N1C [Example 3062] ({CH2CO}-F[NMeF][NMeNle][Sar]DV[NMeF]Y[Sar][Bta]YLCG-NH2; thioether N-13),,0.385 to 6.74 nM,4.78 to 72.9 nM,
CCCC[C@H]1C(=O)N(C)[C@@H](CCCC)C(=O)NC(CCCNC(=N)N)C(=O)N[C@H](C(=O)NCC(N)=O)CSCC(=O)N[C@@H](Cc2ccc(O)cc2)C(=O)N(C)[C@@H](C)C(=O)N[C@@H](CC(N)=O)C(=O)N2CCC[C@H]2C(=O)N[C@@H](CN)C(=O)N[C@@H](CC(C)C)C(=O)N2C[C@H](O)C[C@H]2C(=O)N[C@@H](Cc2c[nH]c3ccccc23)C(=O)N[C@@H](CO)C(=O)N[C@@H](Cc2c(-c3cccc(OC)c3)[nH]c3ccccc23)C(=O)N1C (stereo partly shown) [Example 7003] ({CH2CO}-Y[NMeA]NP[Dap]L[Hyp]WS[X8][NMeNle][NMeNle][ξR]CG-NH2; thioether N-14),4.78 to 72.9 nM,0.385 to 6.74 nM,,
CCCC[C@H]1C(=O)N(C)CC(=O)N[C@@H](CC(N)=O)C(=O)N[C@@H](C(C)C)C(=O)N(C)[C@@H](Cc2ccccc2)C(=O)N[C@@H](Cc2ccc(O)cc2)C(=O)N(C)CC(=O)N[C@@H](Cc2c[nH]c3ccccc23)C(=O)N[C@@H](Cc2ccc(O)cc2)C(=O)N[C@@H](CCCN)C(=O)N[C@H](C(=O)NCC(N)=O)CSCC(=O)N[C@@H](Cc2ccccc2)C(=O)N[C@@H](Cc2ccncc2)C(=O)N1C [Example 3610] ({CH2CO}-F[4Pal][NMeNle][Sar]NV[NMeF]Y[Sar]WY[Orn]CG-NH2; thioether N-13),4.78 to 72.9 nM,6.76 to 30.3 nM,,
CCCC[C@H]1C(=O)N(C)[C@@H](CCCC)C(=O)N[C@@H](CCCNC(=N)N)C(=O)N[C@H](C(=O)NCC(N)=O)CSCC(=O)N[C@@H](Cc2ccc(O)cc2)C(=O)N(C)[C@@H](C)C(=O)N[C@@H](CC(N)=O)C(=O)N2CCC[C@H]2C(=O)N[C@@H](Cc2cnc[nH]2)C(=O)N[C@@H](CC(C)C)C(=O)N2CC(F)(F)C[C@H]2C(=O)N[C@@H](Cc2c[nH]c3ccccc23)C(=O)N[C@@H](CO)C(=O)N[C@@H](Cc2c[nH]c3ccccc23)C(=O)N1C [Example 1126],,6.76 to 30.3 nM,0.158 to 4.71 nM,
